# Assay results: patent publication EP0054512A2, “Cephalosporin esters, process for their preparation and pharmaceutical compositions containing them” (CIBA-GEIGY AG, priority 1980, dated 1982)
# Test system: Escherichia coli, Proteus spp. und anderen
# Assay: Systemic gram-negative infection in the mouse, oral administration
# Parameters: species or system Maus
# Conditions: in vivo, oral administration to the mouse, systemic gram-negative infections, range across pathogens
# Source text: Die Verbindungen der Formel I, worin Am eine freie Aminogruppe ist und ihre pharmazeutisch verwendbaren, nichttoxischen Salze sind wertvolle, antibiotisch wirksame Substanzen, die insbesondere als antibakterielle Antibiotika verwendet werden können.
compound,measurement,value
CCOC(=O)OC(C)OC(=O)C1=CCS[C@@H]2[C@H](NC(=O)/C(=N\OC)c3csc(N)n3)C(=O)N12 (stereo partly shown) [7ß-[2-(2-Amino-4-thiazolyl)-2-methoxyiminoacetamido]-3-cephem-4-carbonsäure-1-äthoxycarbonyloxyäthylester],ED50,0.3 to 150 mg/kg
